From ChEMBL document CHEMBL1201862, “PubChem BioAssay data set” (2004)
Activity calls are given as the source filed them.

Experiments:
[1] = molecular target: Serine/threonine-protein phosphatase PP1-alpha catalytic subunit (Homo sapiens, UniProt P62136); assay: PP1 phosphatase inhibitors, dose response, biochemical, fluorescence (AID 2394)
[2] = molecular target: T1, Protein RecA (Mycobacterium tuberculosis, UniProt P9WHJ3); assay: Fluorescence Cell-Free Homogeneous Dose Retest to Identify Inhibitors of RecA-Intein Splicing Activity. [Related pubchem assays (depositor defined):AID2097, AID2223, AID489010, AID492950]; assay type: functional
T1 sequence (P9WHJ3 whole entry): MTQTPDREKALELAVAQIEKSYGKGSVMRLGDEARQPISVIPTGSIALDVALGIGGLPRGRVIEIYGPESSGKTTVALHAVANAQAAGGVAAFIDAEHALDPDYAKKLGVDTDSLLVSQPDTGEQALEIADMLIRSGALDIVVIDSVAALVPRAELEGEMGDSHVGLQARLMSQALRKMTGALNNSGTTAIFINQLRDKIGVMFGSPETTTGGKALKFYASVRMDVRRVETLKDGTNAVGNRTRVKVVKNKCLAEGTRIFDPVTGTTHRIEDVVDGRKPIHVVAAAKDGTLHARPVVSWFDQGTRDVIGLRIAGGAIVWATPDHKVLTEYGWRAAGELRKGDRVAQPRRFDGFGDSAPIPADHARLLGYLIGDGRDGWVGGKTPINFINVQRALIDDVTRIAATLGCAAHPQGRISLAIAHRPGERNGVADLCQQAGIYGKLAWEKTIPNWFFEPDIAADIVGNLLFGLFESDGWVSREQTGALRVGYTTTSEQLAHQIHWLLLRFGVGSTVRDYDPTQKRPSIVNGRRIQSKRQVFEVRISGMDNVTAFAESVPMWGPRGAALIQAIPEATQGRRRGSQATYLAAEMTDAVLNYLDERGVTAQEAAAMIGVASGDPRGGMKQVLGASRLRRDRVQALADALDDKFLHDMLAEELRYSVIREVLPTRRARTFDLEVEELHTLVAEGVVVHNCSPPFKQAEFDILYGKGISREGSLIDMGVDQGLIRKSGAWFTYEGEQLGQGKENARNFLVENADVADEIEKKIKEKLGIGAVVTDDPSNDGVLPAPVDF

[3] = molecular target: T2, Replicative DNA helicase DnaB (Mycobacterium tuberculosis, UniProt P9WMR3); assay: DnaB intein splicing inhibitors, dose response, biochemical, cell-free fluorescence (AID 449749); assay type: functional
T2 sequence (P9WMR3 whole entry): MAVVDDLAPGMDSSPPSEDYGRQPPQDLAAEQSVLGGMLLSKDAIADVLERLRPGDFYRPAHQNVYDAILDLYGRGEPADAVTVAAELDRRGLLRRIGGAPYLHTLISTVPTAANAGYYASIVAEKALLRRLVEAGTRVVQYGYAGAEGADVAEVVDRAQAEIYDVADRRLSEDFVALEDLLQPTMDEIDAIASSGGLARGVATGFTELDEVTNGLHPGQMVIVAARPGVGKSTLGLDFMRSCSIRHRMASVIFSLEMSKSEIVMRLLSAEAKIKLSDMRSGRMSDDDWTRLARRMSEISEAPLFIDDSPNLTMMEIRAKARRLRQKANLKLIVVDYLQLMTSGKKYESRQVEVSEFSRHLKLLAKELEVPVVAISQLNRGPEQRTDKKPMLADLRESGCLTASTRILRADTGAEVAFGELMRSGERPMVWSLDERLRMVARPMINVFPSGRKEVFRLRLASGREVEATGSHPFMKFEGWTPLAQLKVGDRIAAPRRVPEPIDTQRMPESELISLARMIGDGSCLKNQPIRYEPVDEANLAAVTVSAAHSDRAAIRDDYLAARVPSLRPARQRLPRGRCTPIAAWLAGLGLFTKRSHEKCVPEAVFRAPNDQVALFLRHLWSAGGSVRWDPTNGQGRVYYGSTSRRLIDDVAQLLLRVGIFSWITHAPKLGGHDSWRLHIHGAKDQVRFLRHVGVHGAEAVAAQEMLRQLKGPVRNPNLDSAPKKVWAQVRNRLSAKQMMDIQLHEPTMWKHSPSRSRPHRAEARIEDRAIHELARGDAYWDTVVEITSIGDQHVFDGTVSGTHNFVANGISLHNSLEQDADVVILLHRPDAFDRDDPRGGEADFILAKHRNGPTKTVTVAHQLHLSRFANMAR

[4] = molecular target: T3, Caspase-6 (Homo sapiens, UniProt P55212); assay: human caspase-6 inhibitors, dose response, biochemical, VEID-R110 fluorescence, cherry-pick (AID 720632)
T3 sequence (P55212 whole entry): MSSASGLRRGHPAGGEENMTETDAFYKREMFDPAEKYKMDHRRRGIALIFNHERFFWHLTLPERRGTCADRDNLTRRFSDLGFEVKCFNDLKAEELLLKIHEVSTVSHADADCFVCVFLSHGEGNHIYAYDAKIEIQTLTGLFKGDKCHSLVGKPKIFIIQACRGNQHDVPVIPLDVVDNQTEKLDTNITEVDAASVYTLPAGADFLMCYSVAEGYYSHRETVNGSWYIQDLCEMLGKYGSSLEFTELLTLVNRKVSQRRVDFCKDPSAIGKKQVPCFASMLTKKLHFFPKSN

[5] = molecular target: T4, Tyrosyl-DNA phosphodiesterase 2 (Homo sapiens, UniProt O95551); assay: human TDP2 enzyme inhibitors, dose response, biochemical, epi absorbance, IC50 (AID 743297)
T4 sequence (O95551 whole entry): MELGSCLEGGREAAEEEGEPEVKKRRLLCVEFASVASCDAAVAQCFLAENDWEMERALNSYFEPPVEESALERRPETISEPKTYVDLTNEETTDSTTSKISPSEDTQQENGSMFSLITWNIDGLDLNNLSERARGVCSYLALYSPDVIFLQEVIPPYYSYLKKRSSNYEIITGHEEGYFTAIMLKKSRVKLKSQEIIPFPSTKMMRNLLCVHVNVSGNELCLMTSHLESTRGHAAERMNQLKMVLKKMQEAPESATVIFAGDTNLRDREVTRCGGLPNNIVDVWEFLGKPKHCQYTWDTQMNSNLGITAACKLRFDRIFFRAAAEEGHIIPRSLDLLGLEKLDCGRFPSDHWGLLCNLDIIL

[6] = molecular target: Serine/threonine-protein phosphatase (Homo sapiens, UniProt Q9BPW0); assay: PP5 phosphatase inhibitors, dose response, biochemical, fluorescence (AID 2395)
[7] = molecular target: Voltage-gated inwardly rectifying potassium channel KCNH2 (Homo sapiens, UniProt Q12809); assay: hERG protection from proarrhythmic block, potency, dose response, cell-based, thallium flux (AID 2121); assay type: ADME
[8] = M. tuberculosis growth inhibition, HTS (AID 449762); assay type: functional
[9] = molecular target: 14-3-3 protein gamma (Homo sapiens, UniProt P61981); assay: modulators of 14-3-3 gamma client binding – dose response (AID 711); assay type: functional
[10] = molecular target: T5, Streptokinase A (Streptococcus pyogenes serotype M1, UniProt P10520); assay: S. pyogenes streptokinase expression inhibitors, potency, dose response, plasminogen activation absorbance, OD405 (AID 1914); assay type: functional, Streptococcus pyogenes M1 GAS;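 further: secreted streptokinase activity via plasminogen activation per viability signal from cell pellet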
T5 sequence (P10520 whole entry): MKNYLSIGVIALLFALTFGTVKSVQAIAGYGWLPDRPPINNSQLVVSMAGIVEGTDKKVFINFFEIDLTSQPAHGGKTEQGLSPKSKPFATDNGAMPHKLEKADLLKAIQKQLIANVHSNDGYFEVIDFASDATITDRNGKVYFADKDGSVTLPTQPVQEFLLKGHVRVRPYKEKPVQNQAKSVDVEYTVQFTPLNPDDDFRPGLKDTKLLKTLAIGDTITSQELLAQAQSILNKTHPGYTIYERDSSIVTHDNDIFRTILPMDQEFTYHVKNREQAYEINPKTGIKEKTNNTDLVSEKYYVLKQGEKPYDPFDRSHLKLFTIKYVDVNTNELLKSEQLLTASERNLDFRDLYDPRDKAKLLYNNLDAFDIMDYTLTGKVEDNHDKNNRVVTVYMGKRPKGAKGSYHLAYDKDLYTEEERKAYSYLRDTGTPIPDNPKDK

[11] = test system: Streptococcus sp. 'group A'; assay: growth inhibition of control SK(-) GAS strain, dose response, counter-screen for streptokinase expression inhibitor project, luminescence, kanamycin, BacTiterGlo, confirmation (AID 1900); assay type: functional, organism-based
[12] = test system: Streptococcus; assay: Group A Streptococcus viability loss, dose response, counter-screen for streptokinase expression inhibitor project, luminescence, BacTiterGlo (AID 1915); assay type: functional, organism-based;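 further: potency for reduction of bacterial viability or growth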
[13] = molecular target: Heat shock protein HSP 90-alpha (Homo sapiens, UniProt P07900); assay type: functional, organism-based
[14] = molecular target: T6, Zinc finger protein mex-5 (Caenorhabditis elegans, UniProt Q9XUB2); assay: MEX-5/TCR-2 RNA interaction inhibitors, dose response, biochemical, C. elegans, fluorescence polarization (AID 1960)
T6 sequence (Q9XUB2 whole entry): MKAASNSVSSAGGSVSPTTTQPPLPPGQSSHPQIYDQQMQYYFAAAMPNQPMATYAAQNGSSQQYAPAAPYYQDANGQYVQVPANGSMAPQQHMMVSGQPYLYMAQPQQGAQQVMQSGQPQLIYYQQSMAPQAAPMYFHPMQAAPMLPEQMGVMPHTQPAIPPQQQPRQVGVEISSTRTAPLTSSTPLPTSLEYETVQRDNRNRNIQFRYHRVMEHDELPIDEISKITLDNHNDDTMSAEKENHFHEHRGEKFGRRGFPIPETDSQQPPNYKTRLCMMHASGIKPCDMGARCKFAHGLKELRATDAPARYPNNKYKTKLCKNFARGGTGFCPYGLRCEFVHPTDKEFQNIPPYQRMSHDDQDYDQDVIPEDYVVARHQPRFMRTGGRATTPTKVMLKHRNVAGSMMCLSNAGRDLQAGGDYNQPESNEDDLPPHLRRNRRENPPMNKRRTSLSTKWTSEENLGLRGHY

[15] = molecular target: T7, RNA-binding protein pos-1 (Caenorhabditis elegans, UniProt G5EF15); assay: inhibitors of POS-1/mex-3 RNA binding, dose response, biochemical, fluorescence polarization (AID 1964);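 further: purified POS-1 fused to maltose binding protein made in E. coli; potency of compounds blocking POS-1 binding to fluorescent RNA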
T7 sequence (G5EF15 whole entry): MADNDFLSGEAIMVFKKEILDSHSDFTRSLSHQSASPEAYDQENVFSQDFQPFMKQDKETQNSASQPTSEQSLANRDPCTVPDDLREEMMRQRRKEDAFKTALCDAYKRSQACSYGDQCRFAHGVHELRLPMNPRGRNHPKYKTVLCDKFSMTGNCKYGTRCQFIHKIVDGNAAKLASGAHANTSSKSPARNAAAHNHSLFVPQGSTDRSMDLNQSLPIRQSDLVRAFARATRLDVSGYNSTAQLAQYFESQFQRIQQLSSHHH

[16] = cytotoxicity in HEK-293T NF-kB-Luc cells, dose response, cytotoxicity control for B/T-cell NF-kB inhibitor project, cell-based, uHTS hits (AID 489019); assay type: functional;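 further: IC50 reflects cytotoxicity as loss of cell viability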
[17] = Vero cell cytotoxicity, dose response, cytotoxicity control for Vif-APOBEC3G degradation inhibitor project, Vero cells (AID 1117358); assay type: functional; details: Human immunodeficiency virus 1, Vero
[18] = NIH-3T3 fibroblast cytotoxicity, dose response, cytotoxicity control, cell-based, fluorescence, Alamar Blue, secondary assay (AID 2327); assay type: functional;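 further: NIH-3T3 mouse fibroblasts cultured with fluconazole at 8 µg/mL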
[19] = test system: INS1; assay: beta cell apoptosis inhibitors, cytokine rescue, dose response, luminescence, retest (AID 449756); assay type: functional, cell-based; details: Rattus norvegicus;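 further: cell death triggered by IL-1 beta plus TNF-alpha plus IFN-gamma mixture; protective hits raise ATP signal compared with cytokine alone wells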
[20] = molecular target: Sphingosine 1-phosphate receptor 2 (Homo sapiens, UniProt O95136); assay: Dose Response Cell Based Assay for Antagonists of the S1P2 Receptor. [Related pubchem assays: 856, 736 ]; assay type: functional
[21] = C. albicans growth with fluconazole, confirmation, fluorescence, retest (AID 2467); assay type: functional, cell-based
[22] = molecular target: T8, Protein skinhead-1 (Caenorhabditis elegans, UniProt P34707); assay type: functional
T8 sequence (P34707 whole entry): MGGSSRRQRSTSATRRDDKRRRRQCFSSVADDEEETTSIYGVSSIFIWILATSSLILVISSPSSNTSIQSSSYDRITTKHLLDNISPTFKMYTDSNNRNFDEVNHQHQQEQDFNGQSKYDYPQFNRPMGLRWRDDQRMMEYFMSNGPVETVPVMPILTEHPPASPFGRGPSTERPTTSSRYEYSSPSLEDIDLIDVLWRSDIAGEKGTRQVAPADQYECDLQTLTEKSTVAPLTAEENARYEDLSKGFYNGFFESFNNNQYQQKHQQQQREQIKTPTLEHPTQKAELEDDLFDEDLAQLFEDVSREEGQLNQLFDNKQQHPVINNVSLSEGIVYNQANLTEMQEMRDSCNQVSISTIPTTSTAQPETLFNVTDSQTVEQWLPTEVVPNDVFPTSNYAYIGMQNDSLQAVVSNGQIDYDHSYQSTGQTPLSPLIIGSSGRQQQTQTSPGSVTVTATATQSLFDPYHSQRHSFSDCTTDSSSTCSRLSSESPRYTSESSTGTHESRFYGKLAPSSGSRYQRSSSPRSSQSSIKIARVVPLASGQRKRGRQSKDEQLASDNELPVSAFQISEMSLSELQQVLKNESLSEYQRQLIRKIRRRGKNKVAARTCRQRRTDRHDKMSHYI

[23] = test system: Jurkat; assay: antigen receptor-induced NF-kB inhibitors, dose response, Jurkat, luciferase reporter, luminescence, B- and T-cell (AID 489004); assay type: functional, cell-based; details: Homo sapiens;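 further: NF-kB luciferase reporter Jurkat cells stimulated with PMA plus ionomycin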
[24] = molecular target: Complement C1s subcomponent (Homo sapiens, UniProt P09871); assay: Complement C1s ELISA. [Related pubchem assays: 538, 787 ]; assay type: functional
Sequence of Complement C1s subcomponent (P09871 16-437 limits assumed): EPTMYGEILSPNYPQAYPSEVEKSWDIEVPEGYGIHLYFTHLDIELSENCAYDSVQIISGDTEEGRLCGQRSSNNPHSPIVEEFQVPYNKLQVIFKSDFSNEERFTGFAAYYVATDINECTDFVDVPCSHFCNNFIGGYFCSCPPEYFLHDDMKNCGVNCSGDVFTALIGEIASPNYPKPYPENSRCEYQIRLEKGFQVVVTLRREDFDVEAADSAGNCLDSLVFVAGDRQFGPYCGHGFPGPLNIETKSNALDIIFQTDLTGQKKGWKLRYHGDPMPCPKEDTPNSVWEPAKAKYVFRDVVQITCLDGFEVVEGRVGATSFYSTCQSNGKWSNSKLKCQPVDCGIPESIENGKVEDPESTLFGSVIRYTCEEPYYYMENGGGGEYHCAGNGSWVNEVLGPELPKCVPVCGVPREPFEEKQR
Sequence of Complement C1s subcomponent (P09871 438-688 limits assumed): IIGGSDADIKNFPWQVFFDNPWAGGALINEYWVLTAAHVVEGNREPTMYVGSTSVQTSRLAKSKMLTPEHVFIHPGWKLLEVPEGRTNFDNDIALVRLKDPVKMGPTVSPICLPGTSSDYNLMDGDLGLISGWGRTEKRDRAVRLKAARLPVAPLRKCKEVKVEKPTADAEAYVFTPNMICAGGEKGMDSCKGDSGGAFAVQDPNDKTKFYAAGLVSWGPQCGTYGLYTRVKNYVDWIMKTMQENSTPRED

Sequence of Serine/threonine-protein phosphatase (Q9BPW0 whole entry): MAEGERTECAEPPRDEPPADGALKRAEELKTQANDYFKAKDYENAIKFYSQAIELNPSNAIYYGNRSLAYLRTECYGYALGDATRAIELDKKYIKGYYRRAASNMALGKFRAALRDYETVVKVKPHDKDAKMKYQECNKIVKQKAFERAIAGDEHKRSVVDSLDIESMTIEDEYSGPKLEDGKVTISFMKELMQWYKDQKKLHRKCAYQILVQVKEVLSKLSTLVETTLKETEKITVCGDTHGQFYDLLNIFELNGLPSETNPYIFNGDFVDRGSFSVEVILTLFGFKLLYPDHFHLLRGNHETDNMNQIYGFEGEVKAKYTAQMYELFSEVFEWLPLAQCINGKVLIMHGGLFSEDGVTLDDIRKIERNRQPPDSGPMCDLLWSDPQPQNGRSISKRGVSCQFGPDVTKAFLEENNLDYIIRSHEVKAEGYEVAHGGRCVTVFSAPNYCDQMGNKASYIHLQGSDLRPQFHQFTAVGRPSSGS
Sequence of Voltage-gated inwardly rectifying potassium channel KCNH2 (Q12809 whole entry): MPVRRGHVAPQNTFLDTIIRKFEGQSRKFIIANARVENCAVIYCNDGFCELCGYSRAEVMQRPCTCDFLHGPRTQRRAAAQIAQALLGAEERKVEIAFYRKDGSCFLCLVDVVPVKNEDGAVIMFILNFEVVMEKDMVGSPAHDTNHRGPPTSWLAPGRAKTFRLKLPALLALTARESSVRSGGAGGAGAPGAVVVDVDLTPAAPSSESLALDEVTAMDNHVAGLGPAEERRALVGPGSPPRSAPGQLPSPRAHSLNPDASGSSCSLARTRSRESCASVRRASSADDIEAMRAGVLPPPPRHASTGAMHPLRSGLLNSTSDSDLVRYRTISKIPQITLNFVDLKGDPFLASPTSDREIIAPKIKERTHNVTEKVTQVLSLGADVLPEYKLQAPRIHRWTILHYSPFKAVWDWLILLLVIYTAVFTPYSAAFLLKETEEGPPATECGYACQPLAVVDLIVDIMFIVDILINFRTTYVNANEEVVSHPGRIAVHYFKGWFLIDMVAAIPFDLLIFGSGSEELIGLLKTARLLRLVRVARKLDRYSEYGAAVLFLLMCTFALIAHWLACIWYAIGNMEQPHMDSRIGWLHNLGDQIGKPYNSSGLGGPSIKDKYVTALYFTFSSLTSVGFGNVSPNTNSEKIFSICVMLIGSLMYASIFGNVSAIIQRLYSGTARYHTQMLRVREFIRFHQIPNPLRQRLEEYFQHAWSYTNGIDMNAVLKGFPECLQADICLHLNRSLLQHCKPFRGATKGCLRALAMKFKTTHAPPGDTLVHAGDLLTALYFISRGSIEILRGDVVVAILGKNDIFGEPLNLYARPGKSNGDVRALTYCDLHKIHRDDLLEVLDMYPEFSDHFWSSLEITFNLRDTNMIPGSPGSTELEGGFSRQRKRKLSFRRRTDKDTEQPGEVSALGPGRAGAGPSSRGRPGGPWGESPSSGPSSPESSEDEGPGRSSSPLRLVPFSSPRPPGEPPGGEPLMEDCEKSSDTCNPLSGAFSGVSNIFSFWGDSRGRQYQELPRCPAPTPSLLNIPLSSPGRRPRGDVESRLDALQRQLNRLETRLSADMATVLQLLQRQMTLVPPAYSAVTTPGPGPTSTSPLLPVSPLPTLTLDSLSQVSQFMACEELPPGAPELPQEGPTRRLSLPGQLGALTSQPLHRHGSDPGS
Sequence of Sphingosine 1-phosphate receptor 2 (O95136 whole entry): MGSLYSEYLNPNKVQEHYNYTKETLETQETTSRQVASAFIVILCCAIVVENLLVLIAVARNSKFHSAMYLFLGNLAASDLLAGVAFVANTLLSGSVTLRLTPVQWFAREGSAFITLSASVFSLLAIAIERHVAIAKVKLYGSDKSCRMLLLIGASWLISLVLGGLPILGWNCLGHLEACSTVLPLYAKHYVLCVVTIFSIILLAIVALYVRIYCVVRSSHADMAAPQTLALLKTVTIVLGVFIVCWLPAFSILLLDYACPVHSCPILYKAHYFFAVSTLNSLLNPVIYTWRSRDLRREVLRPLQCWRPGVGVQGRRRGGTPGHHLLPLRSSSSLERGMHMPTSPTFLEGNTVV
Sequence of Serine/threonine-protein phosphatase PP1-alpha catalytic subunit (P62136 whole entry): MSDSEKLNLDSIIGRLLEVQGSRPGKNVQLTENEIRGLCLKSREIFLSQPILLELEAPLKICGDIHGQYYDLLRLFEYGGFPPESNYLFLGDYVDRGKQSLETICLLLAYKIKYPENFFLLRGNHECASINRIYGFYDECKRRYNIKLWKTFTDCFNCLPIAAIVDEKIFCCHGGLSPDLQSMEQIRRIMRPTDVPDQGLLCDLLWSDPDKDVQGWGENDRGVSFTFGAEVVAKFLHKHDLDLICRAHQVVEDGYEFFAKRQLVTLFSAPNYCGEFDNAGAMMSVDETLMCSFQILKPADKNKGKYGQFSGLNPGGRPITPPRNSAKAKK
Sequence of 14-3-3 protein gamma (P61981 whole entry): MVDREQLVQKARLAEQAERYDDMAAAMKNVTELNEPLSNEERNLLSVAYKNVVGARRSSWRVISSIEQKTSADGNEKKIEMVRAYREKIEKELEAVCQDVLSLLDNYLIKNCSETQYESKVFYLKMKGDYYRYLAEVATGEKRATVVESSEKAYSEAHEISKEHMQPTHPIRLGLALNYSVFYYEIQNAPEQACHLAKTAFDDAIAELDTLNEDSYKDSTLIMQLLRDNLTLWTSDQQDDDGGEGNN

Oc1nc(Nc2ccccc2)cc2cc(Br)ccc12
IC50 [1]: 46.9 µM (not active) | EC50 [2]: 7 µM (active) | AC50 [3]: > 120 µM (inactive) | AC50 [4]: 6.04 µM (active) | IC50 [5]: 32.2 µM (inactive) | IC50 [6]: > 67 µM (not active)

CCN=C(S)N=NC1=C(O)c2cccc3cccc1c23
EC50 [7]: 0.26 µM (active)

Cc1nc2ccc(NC(=O)N(C(C)C)C(C)C)cc2s1
IC50 [8]: > 100 µM (active)

Nc1nonc1C(=O)NCC/N=C/c1cc(Cc2ccccc2)cc(Br)c1O
IC50 [9]: > 50 µM (not active) | EC50 [10]: > 150 µM (not active) | EC50 [11]: 5.35 µM (active) | EC50 [12]: 9.66 µM (active) | AC50 [13]: 1.24 µM (active) | EC50 [14]: > 300 µM (not active) | EC50 [15]: > 300 µM (not active)

CCCCCCCCNc1ncnc2ccccc12
IC50 [16]: > 80 µM (inactive) | CC50 [17]: > 40 µM (active) | EC50 [18]: > 160 µM (inactive) | AC50 [19]: 0.232 µM (active) | IC50 [20]: 1.23 µM (active) | EC50 [21]: 3.26 µM (active) | IC50 [22]: 33 µM (active) | IC50 [23]: > 80 µM (inactive)

O=c1oc(-c2ccco2)nc2ccccc12
IC50 [24]: > 50 µM (not active)
